According to PubChem BioAssay AID1963967 (Molecular Pharmacology Branch, DTP, NCI, 2024):

Test system: 855422-203-R-J1-PDC spheroids with HUVEC/MSC, viability
Assay: Anticancer human tumor 855422-203-R-J1-PDC patient-derived bladder carcinoma cell line growth inhibition [PI3K]
Conditions: for IC50: curve of first compound; for viability, T/C: stronger effect = lower value
Summary of the method: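 We assembled tumor spheroids that included a stromal compartment of HUVEC and MSCs, then exposed them to targeted agents alone and together with PI3K pathway inhibitors. Concentration series descended by half-log from clinically achievable Cmax levels. Viability served as the endpoint.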
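Note: agents incubated with spheroids for one week before read-out.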
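Throughout, for viability, T/C: 100% = DMSO vehicle-treated control wells.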

Which IC50 (second compound 0.0316 µM) does the source give for CNC(=O)c1ccc(N2C(=S)N(c3ccc(C#N)c(C(F)(F)F)c3)C(=O)C2(C)C)cc1F + Cc1nc(NC(=O)N2CCCC2C(N)=O)sc1-c1ccnc(C(C)(C)C(F)(F)F)c1 here?
Its IC50 is > 10 µM.

What about the IC50 (second compound 0.1 µM) of the same compound?
Its IC50 is > 10 µM.

And the IC50 (second compound 0.316 µM)?
Its IC50 is > 10 µM.

And the IC50 (second compound 1 µM)?
Its IC50 is > 10 µM.

What about the IC50 (second compound 3.16 µM) of the same compound?
The IC50 was 0.0316 µM.

What about the IC50 (second compound 10 µM) of the same compound?
The IC50 was < 0.0316 µM.

And the viability, T/C (second compound 0.0316 µM, first compound 0.0316 µM)?
The viability, T/C was 109%.

What about the viability, T/C (second compound 0.0316 µM, first compound 0.1 µM) of the same compound?
Its viability, T/C is 95.3%.

What about the viability, T/C (second compound 0.0316 µM, first compound 0.316 µM) of the same compound?
The viability, T/C was 99.1%.

What about the viability, T/C (second compound 0.0316 µM, first compound 1 µM) of the same compound?
Its viability, T/C is 87.4%.

What about the viability, T/C (second compound 0.0316 µM, first compound 3.16 µM) of the same compound?
The viability, T/C was 80.7%.

What about the viability, T/C (second compound 0.0316 µM, first compound 10 µM) of the same compound?
The viability, T/C was 74.5%.

And the viability, T/C (second compound 0.1 µM, first compound 0.0316 µM)?
The viability, T/C was 99.7%.

What about the viability, T/C (second compound 0.1 µM, first compound 0.1 µM) of the same compound?
The viability, T/C was 97.8%.

And the viability, T/C (second compound 0.1 µM, first compound 0.316 µM)?
The viability, T/C was 96.7%.

And the viability, T/C (second compound 0.1 µM, first compound 1 µM)?
The viability, T/C was 84.8%.

And the viability, T/C (second compound 0.1 µM, first compound 3.16 µM)?
The viability, T/C was 88.1%.

What about the viability, T/C (second compound 0.1 µM, first compound 10 µM) of the same compound?
The viability, T/C was 79%.

And the viability, T/C (second compound 0.316 µM, first compound 0.0316 µM)?
Its viability, T/C is 98.1%.

What about the viability, T/C (second compound 0.316 µM, first compound 0.1 µM) of the same compound?
Its viability, T/C is 83.3%.

What about the viability, T/C (second compound 0.316 µM, first compound 0.316 µM) of the same compound?
The viability, T/C was 96.7%.

What about the viability, T/C (second compound 0.316 µM, first compound 1 µM) of the same compound?
Its viability, T/C is 87.6%.

And the viability, T/C (second compound 0.316 µM, first compound 3.16 µM)?
The viability, T/C was 86.8%.

And the viability, T/C (second compound 0.316 µM, first compound 10 µM)?
Its viability, T/C is 77.4%.

And the viability, T/C (second compound 1 µM, first compound 0.0316 µM)?
Its viability, T/C is 72.5%.

And the viability, T/C (second compound 1 µM, first compound 0.1 µM)?
The viability, T/C was 75.7%.

What about the viability, T/C (second compound 1 µM, first compound 0.316 µM) of the same compound?
The viability, T/C was 73.7%.

And the viability, T/C (second compound 1 µM, first compound 1 µM)?
Its viability, T/C is 76.8%.

What about the viability, T/C (second compound 1 µM, first compound 3.16 µM) of the same compound?
Its viability, T/C is 82.5%.

And the viability, T/C (second compound 1 µM, first compound 10 µM)?
The viability, T/C was 61.8%.

And the viability, T/C (second compound 3.16 µM, first compound 0.0316 µM)?
The viability, T/C was 47.4%.

And the viability, T/C (second compound 3.16 µM, first compound 0.1 µM)?
The viability, T/C was 49.6%.

And the viability, T/C (second compound 3.16 µM, first compound 0.316 µM)?
The viability, T/C was 44.6%.

And the viability, T/C (second compound 3.16 µM, first compound 1 µM)?
The viability, T/C was 51.5%.

And the viability, T/C (second compound 3.16 µM, first compound 3.16 µM)?
The viability, T/C was 54.1%.

What about the viability, T/C (second compound 3.16 µM, first compound 10 µM) of the same compound?
Its viability, T/C is 36.7%.

And the viability, T/C (second compound 10 µM, first compound 0.0316 µM)?
Its viability, T/C is 24.1%.

What about the viability, T/C (second compound 10 µM, first compound 0.1 µM) of the same compound?
The viability, T/C was 27.6%.

What about the viability, T/C (second compound 10 µM, first compound 0.316 µM) of the same compound?
Its viability, T/C is 24.7%.

And the viability, T/C (second compound 10 µM, first compound 1 µM)?
Its viability, T/C is 31.2%.

What about the viability, T/C (second compound 10 µM, first compound 3.16 µM) of the same compound?
The viability, T/C was 29.4%.

What about the viability, T/C (second compound 10 µM, first compound 10 µM) of the same compound?
The viability, T/C was 16.8%.
